Assay results from US9650380B2, “Difluoromethylene compound” (SATO PHARMACEUTICAL CO., LTD., priority 2012, dated 2017).

Target: T1, human URAT1 (Homo sapiens, UniProt Q96S37)
T1 construct: Human URAT1 full-length cDNA was introduced to an expression vector pcDNA5/FRT/V5-His TOPO; expressed in transfected cells
T1 sequence (Q96S37 1-553): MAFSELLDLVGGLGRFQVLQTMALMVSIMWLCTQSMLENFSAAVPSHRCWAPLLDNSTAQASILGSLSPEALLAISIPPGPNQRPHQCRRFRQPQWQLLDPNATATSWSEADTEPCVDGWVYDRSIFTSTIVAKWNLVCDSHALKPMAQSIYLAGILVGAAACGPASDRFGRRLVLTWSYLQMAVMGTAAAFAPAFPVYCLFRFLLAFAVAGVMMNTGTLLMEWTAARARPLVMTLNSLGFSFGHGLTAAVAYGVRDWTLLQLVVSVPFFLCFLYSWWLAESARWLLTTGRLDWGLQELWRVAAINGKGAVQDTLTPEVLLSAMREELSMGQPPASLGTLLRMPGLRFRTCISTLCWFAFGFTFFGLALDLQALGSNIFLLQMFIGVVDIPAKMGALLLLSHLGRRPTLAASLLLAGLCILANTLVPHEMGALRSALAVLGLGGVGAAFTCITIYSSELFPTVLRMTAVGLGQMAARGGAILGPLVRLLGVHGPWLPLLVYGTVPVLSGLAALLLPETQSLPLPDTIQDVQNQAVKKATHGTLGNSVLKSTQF
Assay: Test for uric acid transport inhibition using human URAT1 expression cells
Format: cell-based
Conditions: human URAT1 stable expression CHO cells; 14C-labeled uric acid 38 μM final; incorporation 5 minutes at room temperature; 100% window defined with benzbromarone 100 μM; read-out: URAT1 inhibitory activity (IC50)
Procedure: In this Example, it was evaluated whether the Example compound and the Reference example compound mentioned below has the URAT1 inhibitory activity.
Human URAT1 full-length cDNA was introduced to an expression vector pcDNA5/FRT/V5-His TOPO (registered trademark) (Invitrogen Corporation). The obtained expression plasmid was introduced to Chinese hamster ovary cell (hereinafter referred to as the CHO cell) by the liposome method using Lipofectamine LTX (Invitrogen) and cultured in a selection medium including hygromycin, whereby to prepare human URAT1 stable expression cell.
The human URAT1 expression CHO cell were cultured using D-MEM/F-12 (1:1) mixed medium including 10% bovine fatal serum and hygromycin at 37° C. in the presence of 5% CO2. The cells were seeded onto a 96-well plate (Corning Incorporated) at 0.8×10^5 cells/well, and after 24 hours, the test for uric acid transport inhibition below was performed.
The medium was removed by aspiration, and then the cells were washed once with an assay buffer including 125 mM of sodium gluconate, 4.8 mM of potassium gluconate, 1.2 mM of potassium dihydrogen phosphate, 1.2 mM of magnesium sulfate, 1.3 mM of calcium gluconate and 5.6 mM of glucose, 50 μL assay buffer including the test compound in various concentrations was added, and further 50 μL assay buffer including a radioactive ligand (uric acid labeled with ^14C; 38 μM final concentration) was added, and incorporation reaction was performed at room temperature for 5 minutes. Immediately after the completion of the reaction, the reaction mixture was washed twice with 100 μL ice-cold assay buffer, and 100 μL of 0.1N sodium hydroxide was added. The reaction mixture was stirred to lyse the cells, and 4 mL of Hionic-Fluor (Packard BioScience CO.) was added, and then the radioactivity was measured with a liquid scintillation counter (Beckman Coulter, Inc. and Packard BioScience CO).
The radioactivitiy when each concentration of the test compound was added (uric acid incorporation activity, %) was calculated in which the difference of the radioactivity when the test compound was not added (DMSO added) and the radioactivity when a positive control compound, benzbromarone (a known URAT1 inhibitor) was added in 100 μM, was taken as 100%, and the concentration of the test compound when the uric acid incorporation activity was inhibited to 50% (IC50) was obtained.

| SMILES | IC50 |
| --- | --- |
| Cc1cccc(Cl)c1Cn1nc(C)c2ccc(C(F)(F)C(=O)O)cc21 [Example 3, [1-(2-chloro-6-methylbenzyl)-3-methyl-1H-indazol-6-yl]difluoroacetic acid] | 0.026 µM |
| Cc1nn(Cc2c(Cl)cccc2C2CC2)c2cc(C(F)(F)C(=O)O)ccc12 [Example 12, [1-(2-chloro-6-cyclopropylbenzyl)-3-methyl-1H-indazol-6-yl]difluoroacetic acid] | 0.017 µM |
| O=C(O)C(F)(F)c1ccc2c(Cl)nn(Cc3c(Cl)cccc3Cl)c2c1 [Example 34, [3-chloro-1-(2,6-dichlorobenzyl)-1H-indazol-6-yl]difluoroacetic acid] | 0.015 µM |
| O=C(O)C(F)(F)c1ccc2c(C(F)(F)F)nn(Cc3c(Cl)cccc3Cl)c2c1 [Example 36, [1-(2,6-dichlorobenzyl)-3-trifluoromethyl-1H-indazol-6-yl]difluoroacetic acid] | 0.107 µM |
| Cc1nn(Cc2c(Cl)cccc2C2CC2)c2cc(C(F)(F)C(=O)O)cnc12 [Example 38, [1-(2-chloro-6-cyclopropylbenzyl)-3-methyl-1H-pyrazolo[4,3-b]pyridin-6-yl]difluoroacetic acid] | 0.034 µM |
| CCc1nn(Cc2c(F)cccc2C2CC2)c2cc(C(F)(F)C(=O)O)cnc12 [Example 46, [1-(2-cyclopropyl-6-fluorobenzyl)-3-ethyl-1H-pyrazolo[4,3-b]pyridin-6-yl]difluoroacetic acid] | 0.243 µM |
| Cc1cn(Cc2c(Cl)cccc2Cl)c2cc(C(F)(F)C(=O)O)ccc12 [Example 49, [1-(2,6-dichlorobenzyl)-3-methyl-1H-indol-6-yl]difluoroacetic acid] | 0.038 µM |
| Cc1nn(Cc2c(Cl)cccc2Cl)c2cc(C(F)(F)c3nnn[nH]3)ccc12 [Example 50, 1-(2,6-dichlorobenzyl)-6-[difluoro(1H-tetrazol-5-yl)methyl]-3-methyl-1H-indazole] | 0.007 µM |
| Cc1cccc(C#N)c1Cn1nc(C)c2ccc(C(F)(F)c3nnn[nH]3)cc21 [Example 71, 2-{6-[difluoro(1H-tetrazol-5-yl)methyl]-3-methyl-1H-indazol-1-ylmethyl}-3-methylbenzonitrile] | 0.006 µM |
| Cc1nn(Cc2ccc(C#N)cc2)c2cc(C(F)(F)c3nnn[nH]3)ccc12 [Example 88, 4-{6-[difluoro(1H-tetrazol-5-yl)methyl]-3-methyl-1H-indazol-1-ylmethyl}benzonitrile] | 0.034 µM |
| Cc1nn(Cc2c(C#N)ccnc2Cl)c2cc(C(F)(F)c3nnn[nH]3)ccc12 [Example 92, 2-chloro-3-{6-[difluoro(1H-tetrazol-5-yl)methyl]-3-methyl-1H-indazol-1-ylmethyl}isonicotinonitrile] | 0.021 µM |
| Cc1nn(Cc2cccc3ccncc23)c2cc(C(F)(F)c3nnn[nH]3)ccc12 [Example 94, 8-{6-[difluoro(1H-tetrazol-5-yl)methyl]-3-methyl-1H-indazol-1-ylmethyl}isoquinoline] | 0.125 µM |
| Cc1nn(Cc2c(F)cccc2Cl)c2cc(C(F)(F)c3n[nH]c(=O)o3)ccc12 [Example 101, 5-{[1-(2-chloro-6-fluorobenzyl)-3-methyl-1H-indazol-6-yl]difluoromethyl}-1,3,4-oxadiazol-2(3H)-one] | 0.009 µM |
| Cc1nn(S(=O)(=O)c2c(Cl)cccc2Cl)c2cc(C(F)(F)c3nnn[nH]3)ccc12 [Example 102, 1-(2,6-dichlorobenzenesulfonyl)-6-[difluoro(1H-tetrazol-5-yl)methyl]-3-methyl-1H-indazole] | 0.142 µM |
| Cc1cccc(CC#N)c1Cn1nc(C)c2ccc(C(F)(F)c3nnn[nH]3)cc21 [Example 107, (2-{6-[difluoro(1H-tetrazol-5-yl)methyl]-3-methyl-1H-indazol-1-ylmethyl}-3-methylphenyl)acetonitrile] | 0.012 µM |
| Cc1cccc(C#N)c1Cn1nc(C)c2ccc(C(F)(F)c3nnn[nH]3)nc21 [Example 109, 2-{6-[difluoro(1H-tetrazol-5-yl)methyl]-3-methyl-1H-pyrazolo[3,4-b]pyridin-1-ylmethyl}-3-methylbenzonitrile] | 0.013 µM |

| SMILES | IC50 |
| --- | --- |
| Cc1nn(Cc2c(Cl)cccc2C2CC2)c2cc(C(=O)O)cnc12 [Reference Example 2, 1-(2-chloro-6-cyclopropylbenzyl)-3-methyl-1H-pyrazolo[4,3-b]pyridine-6-carboxylic acid, reference compound] | 0.053 µM |
| O=C(O)c1cnc2c(Cl)nn(Cc3c(Cl)cccc3C3CC3)c2c1 [Reference Example 3, 3-chloro-1-(2-chloro-6-cyclopropylbenzyl)-1H-pyrazolo[4,3-b]pyridine-6-carboxylic acid, reference compound] | 0.032 µM |
| O=C(O)c1cnc2c(C(F)(F)F)nn(Cc3c(Cl)cccc3C3CC3)c2c1 [Reference Example 5, 1-(2-chloro-6-cyclopropylbenzyl)-3-trifluoromethyl-1H-pyrazolo[4,3-b]pyridine-6-carboxylic acid, reference compound] | 0.013 µM |
| Cc1nn(Cc2c(Cl)cccc2C2CC2)c2cc(CCC(=O)O)ccc12 [Reference Example 8, 3-[1-(2-chloro-6-cyclopropylbenzyl)-3-methyl-1H-indazol-6-yl]propionic acid, reference compound] | 0.024 µM |
| Cc1nn(Cc2c(Cl)cccc2Cl)c2cc(C(O)c3nnn[nH]3)ccc12 (stereo not shown) [Reference Example 9, [1-(2,6-dichlorobenzyl)-3-methyl-1H-indazol-6-yl](1H-tetrazol-5-yl)methanol, reference compound] | 0.078 µM |
| O=C(O)Cc1ccc2c(C(F)(F)F)nn(Cc3c(Cl)cccc3Cl)c2c1 [Reference Example 11, [1-(2,6-dichlorobenzyl)-3-trifluoromethyl-1H-indazol-6-yl]acetic acid, reference compound] | 0.015 µM |
| O=C(O)Cc1ccc2c(Cl)nn(Cc3c(Cl)cccc3Cl)c2c1 [Reference Example 12, [3-chloro-1-(2,6-dichlorobenzyl)-1H-indazol-6-yl]acetic acid, reference compound] | 0.016 µM |
| Cc1nn(Cc2c(F)cccc2Cl)c2cc(C(F)(F)C(=O)O)ccc12 [example 9, [1-(2-chloro-6-fluorobenzyl)-3-methyl-1H-indazol-6-yl]difluoroacetic acid] | 0.04 µM |
| Cc1nn(Cc2cccc(Cl)c2Cl)c2cc(C(F)(F)C(=O)O)ccc12 [example 14, [1-(2,3-dichlorobenzyl)-3-methyl-1H-indazol-6-yl]difluoroacetic acid] | 0.048 µM |
| Cc1nn(Cc2c(F)cccc2C(F)(F)F)c2cc(C(F)(F)C(=O)O)ccc12 [example 22, difluoro[1-(2-fluoro-6-trifluoromethylbenzyl)-3-methyl-1H-indazol-6-yl]acetic acid] | 0.052 µM |
| Cc1cccc(C#N)c1Cn1nc(C)c2ccc(C(F)(F)C(=O)O)cc21 [example 24, [1-(2-cyano-6-methylbenzyl)-3-methyl-1H-indazol-6-yl]difluoroacetic acid] | 0.026 µM |
| Cc1nn(Cc2c(C#N)cccc2C2CC2)c2cc(C(F)(F)C(=O)O)ccc12 [example 32, [1-(2-cyano-6-cyclopropylbenzyl)-3-methyl-1H-indazol-6-yl]difluoroacetic acid] | 0.023 µM |
| Cc1nn(Cc2c(C#N)cccc2CO)c2cc(C(F)(F)C(=O)O)ccc12 [example 53, [1-(2-cyano-6-hydroxymethylbenzyl)-3-methyl-1H-indazol-6-yl]difluoroacetic acid] | 0.39 µM |
| Cc1nn(Cc2c(Cl)cccc2C(N)=O)c2cc(C(F)(F)c3nnn[nH]3)ccc12 [example 67, 3-chloro-2-{6-[difluoro(1H-tetrazol-5-yl)methyl]-3-methyl-1H-indazol-1-ylmethyl}benzamide] | 0.046 µM |
| Cc1nn(Cc2c(C#N)cccc2CO)c2cc(C(F)(F)c3nnn[nH]3)ccc12 [example 104] | 0.03 µM |
